Experimental findings from PubChem BioAssay (NCI) are described below.

Common to all, as to assay: inhibition of tumour cell growth, NCI panel, 48 h
Experiment [1] deals with PC-3 prostate.
Experiment [2] deals with RPMI-8226 leukemia.
Experiment [3] deals with NCI/ADR-RES ovarian.
Experiment [4] has as its system MOLT-4 leukemia.
Experiment [5] concerns SN12C renal.
Experiment [6] has as its system HT29 colon.
Experiment [7] deals with CCRF-CEM leukemia.
Experiment [8] has as its system MDA-MB-231 breast.
Experiment [9] concerns NCI-H460 lung.
Experiment [10] deals with TK-10 renal.

Molecules are shown by their SMILES. Values joined by “and” are separate entries in the source; they are usually repeats but may differ in a detail not shown here. Identical values can stand only once.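 Five compound concentrations were applied to cells in 96-well plates for 48 hours; endpoints were derived by simple linear interpolation of the resulting dose-response curve. The concentration for 50% growth inhibition is given as GI50. At the TGI there is no net growth.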

For `COc1ccc(C(=O)/C=C/c2cc3ccccc3[nH]c2=O)cc1`, the GI50 in experiment [1] is more than 59.7 µM; in experiment [2] it was 18.4 µM; in [3], 18.9 µM; in [4] it was 22.2 µM; in experiment [5] it was 21.1 µM; in experiment [6], 19.3 µM. Further, the GI50 is 22.3 µM in experiment [7], 22.3 µM in experiment [8], 19.8 µM in [9] and 20.9 µM in experiment [10]. The TGI in experiment [1] is more than 100 µM; in experiment [2], more than 100 µM; in [3], 42.9 µM; in [4] it was more than 100 µM; in [5], more than 100 µM; in [6] it was more than 80.5 µM. Moreover, the TGI was more than 100 µM in experiment [7], more than 56.4 µM in experiment [8], more than 43.4 µM in experiment [9] and more than 100 µM in experiment [10].
In the case of `CC(=O)O[C@H](C[C@H](C(C)C)N(C)C(=O)[C@@H](NC(=O)[C@H]1CCCCN1C)C(C)C)c1nc(C(=O)N[C@@H](Cc2ccccc2)C[C@H](C)C(=O)O)c(C)s1`, the GI50 is less than 0.0025 µM in experiment [1]; less than 0.0025 µM in [2]; 0.0574 µM in [3]; less than 0.0025 µM in experiment [4]; less than 0.0025 µM in experiment [5]; less than 0.0025 µM in experiment [6]. The GI50 in experiment [7] is less than 0.0025 µM; in [8], less than 0.0025 µM; in experiment [9], less than 0.0025 µM; in [10], more than 25 µM. Also, the TGI in experiment [1], in experiment [2], in [3], in experiment [4], in [5] and in [6] was more than 25 µM in each case. The TGI in [7], in experiment [8], in experiment [9] and in experiment [10] was more than 25 µM each time.
For `COc1cc2c(c(OC)c1OC)-c1ccc(OC)c(=O)cc1[C@@H](NC(=O)CCl)CC2`, the GI50 was less than 0.01 µM in [1]; less than 0.01 µM in experiment [2]; 0.142 µM in experiment [3]; less than 0.01 µM in experiment [4]; less than 0.0142 µM in experiment [5]; less than 0.01 µM in experiment [6]. Moreover, the GI50 is less than 0.01 µM in experiment [7], less than 0.01 µM in experiment [8], less than 0.01 µM in experiment [9] and 0.0647 µM in [10]. For the same molecule, the TGI in experiment [1] is 30.9 µM; in experiment [2], 15.8 µM; in experiment [3] it was more than 23.2 µM; in [4], more than 100 µM; in experiment [5], more than 51.5 µM; in experiment [6], 10.1 µM. The TGI in experiment [7] is more than 33.3 µM; in experiment [8] it was more than 46 µM; in [9], 0.585 µM; in experiment [10], 14.2 µM.
Take `CCN(Cc1ccc(F)cc1)c1ccc(CO)c(Cl)c1`: the GI50 was 14.3 µM in experiment [1]; 3.68 µM in experiment [2]; 11.6 µM in experiment [3]; 15.1 µM in [4]; 12.1 µM in [5]; 3.02 µM in experiment [6]. Moreover, the GI50 was 15.9 µM in [7], 15.6 µM in experiment [8], 0.213 µM in experiment [9] and 0.0366 µM in [10]. Further, the TGI in experiment [1] came to 49.4 µM; in [2], 36.3 µM; in experiment [3], 34.4 µM; in [4], 42.6 µM; in experiment [5], 33.4 µM; in experiment [6] it was 16.1 µM. Moreover, the TGI was 62.6 µM in experiment [7], 51.5 µM in experiment [8], 11.7 µM in experiment [9] and 0.181 µM in experiment [10].
Take `CCCCCCN(CCCCCC)C(=N)c1ccnc2ccccc12`: the GI50 in experiment [1] was 5.81 µM; in experiment [2] it was 2.93 µM; in experiment [3], 5.84 µM; in experiment [4], 3.11 µM; in [5], 7 µM; in [6], 0.835 µM. Besides, the GI50 was 3.17 µM in experiment [7], 5.13 µM in [8], 2.59 µM in experiment [9] and 2.15 µM in experiment [10]. In addition, the TGI in [1] was found to be 20.2 µM; in experiment [2], 11.6 µM; in [3] it was 21.1 µM; in experiment [4], 17.2 µM; in [5] it was 21.6 µM; in experiment [6], 7.88 µM. The TGI in experiment [7] stood at 18.4 µM; in experiment [8], 21.3 µM; in experiment [9] it was 12.7 µM; in [10], 9.67 µM.
In the case of `Cc1cc(N(CCOS(C)(=O)=O)CCOS(C)(=O)=O)ccc1C=Nc1ccc(-c2csc(-c3ccccc3)n2)c(Cl)c1`, the TGI is 46.5 µM in experiment [1]; more than 71 µM in [2]; 71.5 µM in experiment [3]; 38.7 µM in experiment [4]; 44 µM in experiment [5]; 31.5 µM in experiment [6]. In addition, the TGI in experiment [7] came to 23.3 µM; in [8], 50.9 µM; in [9], 7.01 µM; in experiment [10], 46.1 µM.
Turning to `O=C(O)C(=O)Cc1ccc2c(c1)OCO2`, the TGI in [1], in experiment [2], in experiment [3], in experiment [4], in experiment [5] and in experiment [6] was more than 100 µM in each case. The TGI is 67.1 µM in experiment [7], more than 100 µM in experiment [8], more than 100 µM in experiment [9] and more than 100 µM in experiment [10].
`COc1ccc(OC)c(/C=C/c2nnc(Nc3ccc(Cl)cc3)o2)c1`: the GI50 in experiment [1] was 13.3 µM; in experiment [2] it was more than 100 µM; in experiment [3] it was 7.62 µM; in experiment [4] it was more than 100 µM; in [5], 4.21 µM; in [6], 9.44 µM. In addition, the GI50 was more than 100 µM in [7], 5.23 µM in [8], 3.77 µM in experiment [9] and 7.4 µM in experiment [10]. The TGI in experiment [1] is 76 µM; in [2], more than 100 µM; in experiment [3], 98.1 µM; in experiment [4], more than 100 µM; in experiment [5] it was more than 100 µM; in experiment [6] it was 28.3 µM. In addition, the TGI is more than 100 µM in [7], 53.1 µM in [8], more than 100 µM in experiment [9] and 83.2 µM in experiment [10].
On to `COc1cc2c(c(OC)c1OC)-c1ccc([O-])c(=O)cc1[C@@H](NC(C)=O)CC2.COc1cc2c(c(OC)c1OC)-c1ccc([O-])c(=O)cc1[C@@H](NC(C)=O)CC2.[Cu+2]`, for which the GI50 in experiment [1] is 3.63 µM; in experiment [2], 3.17 µM; in experiment [3] it was 6.16 µM; in [4], 3.42 µM; in [5], 4.97 µM; in experiment [6], 3.43 µM. Moreover, the GI50 in experiment [7] was 3.33 µM; in experiment [8], 3.84 µM; in experiment [9], 3.29 µM; in [10], 9.55 µM. Further, the TGI in experiment [1] is more than 100 µM; in [2] it was 38.2 µM; in experiment [3] it was 51.8 µM; in experiment [4], 21.1 µM; in [5], more than 100 µM; in [6], more than 100 µM. Besides, the TGI in experiment [7] was 19 µM; in experiment [8] it was more than 100 µM; in [9], 15.7 µM; in [10], more than 100 µM.
With `C=C(C)C(=O)NC(N)=NC#N`, the TGI in experiment [1] is 293 µM; in [2], 44.9 µM and 120 µM; in experiment [3], > 83.8 µM and 267 µM; in experiment [4], 52.2 µM and 255 µM; in experiment [5] it was 199 µM; in experiment [6], 248 µM. Besides, the TGI in experiment [7] was 59.9 µM and 60.5 µM; in experiment [8], 301 µM; in [9], 306 µM; in [10], 98.6 µM and 126 µM. The GI50 is 24.7 µM in experiment [2]; 125 µM in experiment [3]; 21.5 µM and 46.7 µM in experiment [4]; 72.1 µM in experiment [5]; 102 µM in experiment [6]; 161 µM in [8]. For the same molecule, the GI50 in experiment [9] was 163 µM; in [10], 33 µM.
Turning to `CC[C@H](C)c1occ2c(O)c(C(=O)O)c(=O)cc-2c1C`, the TGI in experiment [1] was more than 100 µM; in experiment [2], 90.8 µM; in experiment [3], 50.4 µM; in [4], 54.3 µM; in experiment [5] it was 81.4 µM; in experiment [6] it was 62.3 µM. The TGI was 53.5 µM in experiment [7], 50.6 µM in experiment [8], 60.6 µM in experiment [9] and more than 100 µM in experiment [10].
In the case of `COc1cccc(-c2nn(-c3ccccc3)cc2-c2ccnc(NCCNS(=O)(=O)c3ccc(C(F)(F)F)cc3)c2)c1`, the GI50 in [1] is 2.86 µM; in experiment [2], 2.42 µM; in experiment [3], 2.79 µM; in [4], 1.93 µM; in experiment [5], 2.27 µM; in experiment [6], 2.32 µM. Further, the GI50 is 2.34 µM in experiment [7], 3.15 µM in experiment [8], 3.47 µM in experiment [9] and 2.39 µM in experiment [10]. Besides, the TGI in experiment [1] was 26.7 µM; in [2], 7.86 µM; in experiment [3] it was 14.4 µM; in experiment [4], 5.48 µM; in experiment [5], 5.39 µM; in experiment [6], 5.75 µM. In addition, the TGI is more than 100 µM in experiment [7], more than 100 µM in experiment [8], more than 100 µM in [9] and 9.88 µM in experiment [10].
